In patent US20170369807A1, “Ionic Liquid, Lubricant, and Magnetic Recording Medium” (Dexerials Corporation, priority 2016, published 2017):

Columns and labels:
[1] = in acetonitrile; cited from earlier work
[2] = Measurement of thermal stability (TG/DTA); conditions: for Weight reduction temperature 5% / Weight reduction temperature 10% / Weight reduction temperature 20%: TG/DTA, 30° C. to 600° C., 10° C./min, air 200 mL/min; for thermal stability (in words): compared with Z-DOL and Z-TETRAOL
[3] = Solubility test to solvents (visual observation); conditions: ultrasonic waves 5 minutes, left 1 day, visually observed, listed as Example 3A, ammonium
Experimental: To a predetermined amount of Vertrel XF, n-hexane, or ethanol, the ionic liquid was added. Ultrasonic waves were applied to the resultant mixture for 5 minutes, followed by leaving the mixture to stand for 1 day. The solubility was visually observed.
After applying ultrasonic waves to the resultant for 5 minutes, the resultant was left to stand for 1 day. Thereafter, the solubility was visually observed and evaluated based on the following evaluation criteria.
Similarly, after applying ultrasonic waves to the resultant for 5 minutes, the resultant was left to stand for 1 day. Thereafter, the solubility was visually observed and evaluated based on the following evaluation criteria.
Note that, the solubility was visually observed, and it was judged as soluble when it was transparent. Moreover, it was judged as not soluble (insoluble) when it was opaque or insoluble components were observed.

Molecule	pKa [1]	Weight reduction temperature 5% [2] [°C]	Weight reduction temperature 10% [2] [°C]	Weight reduction temperature 20% [2] [°C]	other results
O=[N+]([O-])O [nitric acid]	9.4	–	–	–	–
perfluorocyclopropane sulfoimide	−0.8	–	–	–	–
nonafluorobutanesulfonic acid-octadecyl ammonium [Comp. Ex. 1A]	–	338.8	355.2	370.4	thermal stability (in words) [2]: high
nonafluorobutanesulfonic acid-trimethyloctadecyl ammonium [Comp. Ex. 5A]	–	340.5	356.2	371.9	thermal stability (in words) [2]: high
CCCCCCCCCCCCN(CCCCCCCCCCCC)CCCCCCCCCCCC [Ex. 3A, trifluoromethanesulfonic acid-N,N,N-tridodecyl ammonium]	–	–	–	–	Solubility Fluorine-based solvent ([3]; Vertrel XF [CF3(CHF)2CF2CF3], 25° C.): ≥ 0.2 % by mass; Solubility Ethanol ([3]; ethanol): ≥ 0.5 % by mass; Solubility n-Hexane ([3]; n-hexane, 25° C.): ≥ 0.5 % by mass; thermal stability improved compared with Z-DOL ([2]; compared with Z-DOL (Comparative Example 7C)): ≥ 120 °C; thermal stability improved compared with Z-TETRAOL ([2]; compared with Z-TETRAOL (Comparative Example 8C)): ≥ 45 °C
O=S(=O)(NS(=O)(=O)C(F)(F)C(F)(F)C(F)(F)C(F)(F)F)C(F)(F)C(F)(F)C(F)(F)C(F)(F)F [bis(nonafluorobutanesulfonyl)imide]	0.0	–	–	–	–
nonafluorobutanesulfonic acid-N-methyloctadecyl ammonium [Comp. Ex. 4A]	–	346.8	364.0	381.1	thermal stability (in words) [2]: high
pentadecafluorooctanoic acid octadecyl ammonium [Comp. Ex. 6A]	–	206.9	215.8	223.4	thermal stability (in words) [2]: lacked thermal stability
O=S(=O)(O)C(F)(F)C(F)(F)C(F)(F)C(F)(F)F [nonafluorobutanesulfonic acid]	0.7	–	–	–	–
CCCCCCCCCCCCCCCCCCN.O=S1(=O)NS(=O)(=O)C(F)(F)C(F)(F)C1(F)F [Comp. Ex. 3A, hexafluorocyclopropane-1,3-bis(sulfonyl)imide-octadecyl ammonium]	–	329.6	347.0	365.1	–
O=S(=O)(O)C(F)(F)F [trifluoromethanesulfonic acid]	0.7	–	–	–	–
CCCCCCCCCCCCCCCCCCN.O=S(=O)(NS(=O)(=O)C(F)(F)C(F)(F)C(F)(F)C(F)(F)F)C(F)(F)C(F)(F)C(F)(F)C(F)(F)F [Comp. Ex. 2A, bis(nonafluorobutanesulfonyl)imide-octadecyl ammonium]	–	311.8	329.8	348.0	–
F[B-](F)(F)F.[H+] [tetrafluoroboric acid]	1.8	–	–	–	–
O=C(O)C(F)(F)C(F)(F)C(F)(F)C(F)(F)C(F)(F)C(F)(F)C(F)(F)F [pentadecafluorooctanoic acid]	12.7	–	–	–	–
bis(nonafluorobutanesulfonyl)imide-N,N-dimethyl-dodecyl ammonium [Ex. 2A]	–	308.5	331.5	353.4	–
O=S1(=O)NS(=O)(=O)C(F)(F)C(F)(F)C1(F)F [hexafluorocyclopropane-1,3-bis(sulfonyl)imide]	−0.8	–	–	–	–
CCCCCCCCCCCCCCCCCCN(C)C.O=S(=O)(NS(=O)(=O)C(F)(F)C(F)(F)C(F)(F)C(F)(F)F)C(F)(F)C(F)(F)C(F)(F)C(F)(F)F [Ex. 1A, bis(nonafluorobutanesulfonyl)imide-N,N-dimethyl-octadecyl ammonium]	–	315.7	337.0	356.7	–
